Results on two molecules are retold here after publication PMC11866186, “Novel Benzimidazole–Oxadiazole Derivatives as Anticancer Agents with VEGFR2 Inhibitory Activity: Design, Synthesis, In Vitro Anticancer Evaluation, and In Silico Studies” (ACS Omega, 2025).

One experiment has as its system PANC-1 cell line. The experiment in a line: MTT assay, PANC-1 cells. It counts as cell-based, human. Conditions: for IC50: MTT, 24 h, read-out: IC50 against PANC-1. The protocol:
Cisplatin was used as a reference drug. […] There are hydroxyl and methoxy substituents on the phenyl ring attached to the benzimidazole. It has also been derivatized using different groups on the phenyl ring close to oxadiazole.
(§1) Many analyses are performed to determine cell proliferation. MTT analysis is one of the viability determination tests. According to the working mechanism of the method, the dye containing the tetrazolium ring reacts with the dehydrogenase enzymes in the cells, only to be reduced and broken down by the metabolic cells, turning into water-insoluble formazan crystals. Color changes associated with mitochondrial activity and resulting from the addition of a solvent as a result of the reaction are measured in the microplate reader as optical density data values.[30] Cells were planted in flat-bottomed, 96-well, sterile, lidded, disposable microplates with 1 × 10^4 cells per well in 200 μL of appropriate medium and were allowed to adhere to the plate bottom by incubating for 24 h. At the end of 24 h, 100 μL of medium was withdrawn, and test substances at different concentrations, prepared in 100 μL, were added. Following the substance application, after a 24 h incubation period, 20 μL of stock MTT solution (MTT solution dissolved in 5 mg/mL PBS and filtered before application) was added to each well and protected from light, and the incubation continued for 3 h. Then, the media of the cells were completely withdrawn, and 100 μL of DMSO was added to dissolve the formazan crystals. After shaking in the dark for 15 min, the optical densities (absorbance) of the color changes at 540–570 and 650 nm reference wavelengths were read in the microplate reader. The data were calculated and created in Microsoft Office Excel. For this purpose, first, the blind well value and the control groups of colored substances were removed from the optical readings. The averages of optical densities and % viability values were made from Excel formula calculations, and the results were discussed. The viability of the control group was assumed to be 100%, and all other viability values were calculated based on this (series were run in n = 5 replicates).
A general note: Formazan colour is commonly taken as a measure of viable cells.

Another experiment relates to A549 cell line. The experiment in a line: MTT assay, A549 cells. It is filed as cell-based, human. Conditions: for IC50: Homo sapiens, A549, MTT, 24 h, read-out: IC50 against A549. The procedure:
(§2) The synthesized compounds 4a–4s were screened for their in vitro anticancer activity via the standard MTT assay using three human tumor cell lines, namely, the human lung adenocarcinoma cell line (A549), the human breast cancer cell line (MCF-7), and the human pancreas cell line (PANC-1). Cisplatin was used as a reference drug. […] When the structures of the compounds are evaluated, it is seen that the compounds are derived from two different sources. There are hydroxyl and methoxy substituents on the phenyl ring attached to the benzimidazole. It has also been derivatized using different groups on the phenyl ring close to oxadiazole. When the activities in the PANC-1 cell line are evaluated, it is seen that the activity of compounds bearing the 2,4-dichloro substituent is especially high.
as §1

In a further experiment the test system is MCF-7 cell line. The experiment in a line: MTT assay, MCF-7 cells. It is filed as cell-based, human. Conditions: Homo sapiens, MCF7, 24 h, read-out: IC50 against MCF-7. The procedure:
as §2, §1

Another experiment concerns hTERT-HPNE cell line. The experiment in a line: MTT assay, normal pancreas hTERT-HPNE cells. It counts as cell-based. Conditions: normal human pancreas cells, 24 h, read-out: IC50 against hTERT-HPNE. The protocol:
(§3) By comparing the compounds’ cytotoxic effects against tumor cell lines and normal cell lines, the drug safety parameter for the anticancer activity of the compounds was evaluated, thereby confirming their cytoprotective qualities. In this study, normal human lung (CCD-19Lu) and normal human pancreas (hTERT-HPNE) cell lines were used as controls. The selectivity index (SI) calculated for the compounds tested scales the IC50 values of the compounds against various tumor cell lines with the IC50 values against normal cell lines (Table 2). […] The differential selectivity indices underscore the importance of targeted therapeutic strategies and the potential for these compounds to provide selective anticancer effects with reduced toxicity to normal cells.
as §1

The subject of the next experiment is CCD-19Lu cell line. The experiment in a line: MTT assay, normal lung CCD-19Lu cells. It is filed as cell-based. The settings on record: CCD 19Lu, normal human lung cells, 24 h, read-out: IC50 against CCD-19Lu. The procedure:
as §3, §1

The next experiment addresses T1, VEGFR2 (Homo sapiens, UniProt P35968).
T1 construct: purchased
The experiment in a line: VEGFR2 Kinase Assay Kit inhibition. The settings on record: read-out: IC50 against VEGFR2. It is filed as biochemical. The procedure: The VEGFR2 Kinase Assay Kit was used for VEGFR2 inhibition. The experiment was performed in vitro according to the kit procedure.[31]

The subject of another experiment is VEGFA. The experiment in a line: VEGFA immunofluorescent staining in MCF-7 cells. The settings on record: 24 h treatment, anti-VEGFA antibody, semiquantitative scoring. It counts as cell-based, human. The source says:
An endogenous angiogenic growth factor called VEGFA primarily promotes the migration and proliferation of vascular endothelial cells.[2] Fluorescent staining degrees of the MCF-7 cancer cell line, marked with an anti-VEGFA antibody and immunofluorescence technique, were compared under light microscopy (Figure 4). […] Five different areas were selected for each group. All cell nuclei seen in the selected areas are compared with those stained VEGFA positive.
For VEGFA immunofluorescent staining, cells were grown on sterile coverslips in 6-well culture dishes. The cells were purified from the medium and washed with phosphate-buffered saline (PBS) (Sigma-Aldrich, Germany). The washed cells were fixed in ph 7.4% paraformaldehyde (Merk, Germany) for 20 min at room temperature. After fixation, the cells were washed two times with PBS for 5 min. For permeability, the cells were incubated in 0.1% Triton X-100 (Sigma-Aldrich, Germany) solution for 10 min. PBS was then washed for 5 min. After washing, Ultra V Block (Thermo Scientific, PBQ180830, USA) was dropped and waited at room temperature for 30 min to prevent nonspecific binding. […] Fluorescent microscopy (Olympus BX51, Japan) was employed by using suitable filters for fluorescence examination and then by making a registration.

Like-named read-outs stand apart in the source and are kept apart here.

T1 sequence (P35968 20-1356): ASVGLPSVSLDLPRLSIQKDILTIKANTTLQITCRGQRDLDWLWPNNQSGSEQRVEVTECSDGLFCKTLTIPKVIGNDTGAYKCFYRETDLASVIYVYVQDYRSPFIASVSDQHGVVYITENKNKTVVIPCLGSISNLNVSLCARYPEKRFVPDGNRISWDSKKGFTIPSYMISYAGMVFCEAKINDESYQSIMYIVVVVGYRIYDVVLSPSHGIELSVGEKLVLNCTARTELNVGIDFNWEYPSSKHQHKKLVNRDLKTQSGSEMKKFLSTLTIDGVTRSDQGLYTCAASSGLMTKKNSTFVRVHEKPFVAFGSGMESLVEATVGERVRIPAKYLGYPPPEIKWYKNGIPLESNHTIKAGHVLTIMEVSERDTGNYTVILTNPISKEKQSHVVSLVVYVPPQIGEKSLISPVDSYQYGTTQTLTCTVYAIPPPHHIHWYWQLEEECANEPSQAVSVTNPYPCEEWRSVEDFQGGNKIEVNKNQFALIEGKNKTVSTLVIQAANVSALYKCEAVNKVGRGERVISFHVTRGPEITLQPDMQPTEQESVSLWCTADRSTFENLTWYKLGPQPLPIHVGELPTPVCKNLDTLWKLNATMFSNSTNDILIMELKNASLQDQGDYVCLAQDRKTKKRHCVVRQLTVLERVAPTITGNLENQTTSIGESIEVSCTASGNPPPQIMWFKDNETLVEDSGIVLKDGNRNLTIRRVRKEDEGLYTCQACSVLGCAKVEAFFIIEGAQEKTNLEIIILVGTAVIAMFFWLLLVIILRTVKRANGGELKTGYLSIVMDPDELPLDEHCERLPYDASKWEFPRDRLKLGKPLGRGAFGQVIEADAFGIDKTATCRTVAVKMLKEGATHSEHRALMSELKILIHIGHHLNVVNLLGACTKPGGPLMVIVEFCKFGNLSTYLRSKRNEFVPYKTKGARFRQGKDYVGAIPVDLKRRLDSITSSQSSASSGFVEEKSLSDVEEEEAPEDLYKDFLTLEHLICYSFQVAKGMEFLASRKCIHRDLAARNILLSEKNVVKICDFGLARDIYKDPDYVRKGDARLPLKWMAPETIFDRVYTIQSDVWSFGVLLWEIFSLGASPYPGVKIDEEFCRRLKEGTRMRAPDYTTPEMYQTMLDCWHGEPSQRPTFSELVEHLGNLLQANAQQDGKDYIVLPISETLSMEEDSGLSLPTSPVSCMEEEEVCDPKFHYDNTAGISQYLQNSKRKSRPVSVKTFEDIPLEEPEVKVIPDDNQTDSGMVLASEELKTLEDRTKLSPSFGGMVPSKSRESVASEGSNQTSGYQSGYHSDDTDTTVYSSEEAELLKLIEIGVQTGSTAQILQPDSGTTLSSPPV

On to `COc1ccc(-c2nc3ccc(-c4nnc(SCC(=O)c5ccc(O)c(O)c5)o4)cc3[nH]2)cc1` [4s, 2-((5-(2-(4-Methoxyphenyl)-1H-benzimidazol-6-yl)-1,3,4-oxadiazol-2-yl)thio)-1-(3,4-dihydroxyphenyl)-ethanone], for which the 50% inhibitory concentration (IC50) – broadly, the midpoint of a concentration-inhibition curve – is 6.7 µM with PANC-1 cell line (Homo sapiens, PANC-1, 24 h); 6.6 µM with PANC-1 cell line; 1.6 µM with A549 cell line; 1.2 µM with MCF-7 cell line; 38.3 µM in the experiment with hTERT-HPNE cell line; 1.3 µM in the experiment with CCD-19Lu cell line. The IC50 at VEGFR2 came to 0.502 ± 0.028 µM. For the same molecule, the “Selectivity index (PANC-1)” value with PANC-1 cell line (SI = cytotoxicity against hTERT-HPNE cells/cytotoxicity against PANC-1 cell line) is on record as 5.80. In addition, the “Selectivity index (A549)” value in the experiment with A549 cell line (SI = cytotoxicity against CCD-19Lu cells/cytotoxicity against A549 cell line) is given as 0.81. In the experiment with VEGFA, the “VEGFA immunolocalization compared with control” value is reported as “less VEGFA immunolocalization”.
For `COc1ccc(-c2nc3ccc(-c4nnc(SCC(=O)c5ccc(Cl)cc5Cl)o4)cc3[nH]2)cc1` [4r, 2-((5-(2-(4-Methoxyphenyl)-1H-benzimidazol-6-yl)-1,3,4-oxadiazol-2-yl)thio)-1-(2,4-dichlorophenyl)-ethanone], the 50% inhibitory concentration (IC50) is 0.3 µM with A549 cell line, 0.5 µM in the experiment with MCF-7 cell line, 10.9 µM in the experiment with hTERT-HPNE cell line and 0.8 µM in the experiment on CCD-19Lu cell line. In addition, the “VEGFA immunolocalization compared with control” value in the experiment with VEGFA is recorded as “less VEGFA immunolocalization”.
